Earlier results, collected in article PMC10352257, “In vivo effects of the alpha-synuclein misfolding inhibitor minzasolmin supports clinical development in Parkinson’s disease” (NPJ Parkinson's Disease, 2023).

System: Line 61 transgenic mice
Design: method as in PMID 28585223
Details: cited from earlier work

Substance: CLR01
- effect on gait deficits of Line 61 transgenic mice in round beam traversal test: improved
